Key:
[1] = Metabolic stability in hepatic microsomes (human); type: in vitro ADME; details: human hepatic microsomes 0.5 mg/ml, compound 1 μM, 37° C., pH 7.4, 30 min
Procedure: (§1) The test compound was dissolved in DMSO at the final concentration of 1 μM and pre-incubated for 10 min at 37° C. in potassium phosphate buffer pH 7.4 together with mouse or human hepatic microsomes (Xenotech) at the final concentration of 0.5 mg/ml.
(§2) After the pre-incubation the reaction was started by adding the cofactor mixture (NADP, G6P, G6P-DH); aliquots were taken at time 0 and 30 min, added to acetonitrile in order to stop the reaction. After centrifugation the supernatant was separated and analyzed by LC-MS/MS.
(§3) A control sample without cofactor was always studied in parallel in order to check the chemical stability of the test compound.
(§4) Two reference compounds of known metabolic stability 7-ethoxycoumarin and propranolol were present each time to access the validity of the experiment.
(§5) A fixed concentration of verapamil was added in each sample as internal standard for the LC-MS/MS analysis.
(§6) The percentage of the compound remaining after 30 min incubation period was calculated according the following equation: [area at time 30 min]/[area at time 0 min]*100%.

[2] = Metabolic stability in hepatic microsomes (mouse); type: in vitro ADME; details: mouse hepatic microsomes 0.5 mg/ml, compound 1 μM, 37° C., pH 7.4, 30 min
Procedure: as §1, §2, §3, §4, §5, §6

[3] = system: HDAC (nuclear extract of HeLa cells); assay: Assay of enzyme inhibition of HDAC (BIOMOL Kit); type: biochemical; details: substrate 116 μM
Procedure: The in-vitro activity of HDAC inhibitors was assayed by means of a biochemical assay using a BIOMOL Kit, according to the recommended experimental conditions. […] The samples were incubated for 10 minutes at room temperature and then exposed to a developer (15 minutes at room temperature). In this last step a fluorophore was produced, whose fluorescence was measured using an excitation wavelength of 355 nm and an emission at 460 nm.

SMILES | Met. human (percentage of the compound remaining after 30 min incubation) [1] | Met. mouse (percentage of the compound remaining after 30 min incubation) [2] | IC50 [3]
CN1CCN(c2ccccc2C(=O)/C=C/c2ccc(/C=C/C(=O)NO)cc2)CC1 [Example 1, (E)-N-Hydroxy-3-(4-{(E)-3-[2-(4-methyl-piperazin-1-yl)-phenyl]-3-oxo-propenyl}-phenyl)-acrylamide] | 38.16% | 33.81% | 
CN(C)C1CCN(c2ccc(C(=O)/C=C/c3ccc(/C=C/C(=O)NO)cc3)cc2)CC1 [Example 4, (E)-3-(4-{(E)-3-[4-(4-Dimethylamino-piperidin-1-yl)-phenyl]-3-oxo-propenyl}-phenyl)-N-hydroxy-acrylamide] | 41.88% | 14.00% | 
CN1CCN(Cc2ccc(C(=O)/C=C/c3ccc(/C=C/C(=O)NO)cc3)cc2)CC1 [Example 7, (E)-N-Hydroxy-3-(4-{(E)-3-[4-(4-methyl-piperazin-1-yl-methyl)-phenyl]-3-oxo-propenyl}-phenyl)-acrylamide] | 61.16% | 16.75% | 
CC(=O)N1CCN(Cc2ccc(C(=O)/C=C/c3ccc(/C=C/C(=O)NO)cc3)cc2)CC1 [Example 30, (E)-3-(4-{(E)-3-[4-(4-Acetyl-piperazin-1-ylmethyl)-phenyl]-3-oxo-propenyl}-phenyl)-N-hydroxy-acrylamide] |  |  | 25 nM
C[C@@H]1CN(c2ccc(C(=O)/C=C/c3ccc(/C=C/C(=O)NO)nc3)cc2)C[C@H](C)N1C [Example 39, (E)-N-Hydroxy-3-(5-{(E)-3-oxo-3-[4-((3R,5S)-3,4,5-trimethyl-piperazin-1-yl)-phenyl]-propenyl}-pyridin-2-yl)-acrylamide] | 44.35% | 20.29% | 6.1 nM
CC(=O)N1CCN(c2ccc(C(=O)/C=C/c3ccc(/C=C/C(=O)NO)nc3)cc2)CC1 [Example 42, (E)-3-(5-{(E)-3-[4-(4-Acetyl-piperazin-1-yl)-phenyl]-3-oxo-propenyl}-pyridin-2-yl)-N-hydroxy-acrylamide] | 35.27% | 50.47% | 4.8 nM
C[C@@H]1CN(c2cccc(C(=O)/C=C/c3ccc(/C=C/C(=O)NO)nc3)c2)C[C@H](C)N1C [Example 43, (E)-N-Hydroxy-3-(5-{(E)-3-oxo-3-[3-((3R,5S)-3,4,5-trimethyl-piperazin-1-yl)-phenyl]-propenyl}-pyridin-2-yl)-acrylamide] | 37.29% | 42.45% | 4 nM
CN1CCC(Cc2ccc(C(=O)/C=C/c3ccc(/C=C/C(=O)NO)nc3)cc2)CC1 [Example 44, (E)-N-Hydroxy-3-(5-{(E)-3-[4-(1-methyl-piperidin-4-ylmethyl)-phenyl]-3-oxo-propenyl}-pyridin-2-yl)-acrylamide] | 34.38% | 54.56% | 1.3 nM
O=C(/C=C/c1ccc(/C=C/C(=O)c2ccc(N3CCNCC3)cc2)cn1)NO [Example 45, (E)-N-Hydroxy-3-{5-[(E)-3-oxo-3-(4-piperazin-1-yl-phenyl)-propenyl]-pyridin-2-yl}-acrylamide] | 53.65% | 43.41% | 0.7 nM
CN1CCN(Cc2ccccc2C(=O)/C=C/c2ccc(/C=C/C(=O)NO)nc2)CC1 [Example 47, (E)-N-Hydroxy-3-(5-{(E)-3-[2-(4-methyl-piperazin-1-ylmethyl)-phenyl]-3-oxo-propenyl}-pyridin-2-yl)-acrylamide] | 93.48% | 52.66% | 
O=C(/C=C/c1ccc(/C=C/C(=O)c2ccc(N3CCOCC3)cc2)c(F)c1)NO [Ref (*) 29, reference compound] | 20.86% | 11.17% | 282 nM
CN1CCN(c2ccc(C(=O)/C=C/c3ccc(/C=C/C(=O)NO)cc3)cc2)CC1 [Ref (*) 59, reference compound] | 33.29% | 9.12% | 
O=C(/C=C/c1ccc(/C=C/C(=O)c2cccs2)cn1)NO [Ref (*) 71, reference compound] | 21.82% | 6.04% | 67.5 nM
O=C(/C=C/c1ccc(/C=C/C(=O)c2ccc(F)c(F)c2)cn1)NO [Ref (*) 72, reference compound] | 15.32% | 10.83% | 20 nM

More lines, now with the values ahead:

Met. human (percentage of the compound remaining after 30 min incubation) [1] | Met. mouse (percentage of the compound remaining after 30 min incubation) [2] | IC50 [3] | SMILES
42.58% | 30.5% |  | O=C(/C=C/c1ccc(/C=C/C(=O)c2ccc(N3CCNCC3)cc2)cc1)NO [Example 15, (E)-N-Hydroxy-3-{4-[(E)-3-(4-piperazin-1-yl-phenyl)-3-oxo-propenyl]-phenyl}-acrylamide]
57.28% | 84.89% | 35 nM | CN1CCN(c2cc(Cl)cc(C(=O)/C=C/c3ccc(/C=C/C(=O)NO)cc3)c2)CC1 [Example 25, (E)-3-(4-{(E)-3-[3-Chloro-5-(4-methyl-piperazin-1-yl)-phenyl]-3-oxo-propenyl}-phenyl)-N-hydroxy-acrylamide]
50.84% | 42.41% |  | O=C(/C=C/c1ccc(/C=C/C(=O)c2ccc(CN3CCNCC3)cc2)cc1)NO [Example 26, (E)-N-Hydroxy-3-{4-[(E)-3-oxo-3-(4-piperazin-1-ylmethyl-phenyl)-propenyl]-phenyl}-acrylamide]
8.66% | 2.76% | 238 nM | O=C(/C=C/c1ccc(/C=C/C(=O)c2ccc(N3CCOCC3)cc2)cc1)NO [Ref (*) 41, reference compound]
35.28% | 2.8% |  | COc1cc(C(=O)/C=C/c2ccc(/C=C/C(=O)NO)cc2)ccc1CN1CCOCC1 [Ref (*) 48, reference compound]
13.74% | 5.65% |  | O=C(/C=C/c1ccc(/C=C/C(=O)c2ccccc2)cn1)NO [Ref (*) 69, reference compound]
